Like-named read-outs stand apart in the source and are kept apart here.
Legend:
Assay in all cases: Initial MIC, microbroth dilution (CLSI), avibactam 4 mg/L
Type in all cases: cell-based
E. cloacae = settings: Enterobacter cloacae
Source text: (§1) All MIC determinations including those performed in the checkerboard assay were done in cation-adjusted Mueller-Hinton broth (purchased from Becton Dickinson, Oxford UK). […]

E. coli = settings: Escherichia coli
Source text: as §1

E. faecalis = test system: E. faecalis
Source text: as §1

S. aureus = test system: S. aureus
Source text: as §1

K. pneumoniae = settings: Klebsiella pneumoniae
Description: (§2) All MIC determinations including those performed in the checkerboard assay were done in cation-adjusted Mueller-Hinton broth (purchased from Becton Dickinson, Oxford UK).
(§3) Initial MIC data were determined by microbroth dilution methods as recommended by CLSI (2012b). Checkerboards were made in accordance with the method given by Pillai et. al., ? Antimicrobial Combinations in Antibiotics, LABORATORY MEDICINE (Lorian Ed., 3rd Ed. (2003)) p. 365-440 as per standard microbroth dilution tests but with agents in combination. […] A final avibactam concentration of 4 mg/L was used throughout the study. Antibacterial agents were combined into microtitre plates using the Evolution III liquid handling system.

P. aeruginosa = settings: Pseudomonas aeruginosa
Description: as §2, §3

[1] = isolate 1 E. cloacae Basal MICs, read-out: MIC
[2] = Enterococcus faecalis, isolate 25 E. faecalis Basal MICs, read-out: MIC
[3] = Enterococcus faecalis, isolate 26 E. faecalis Basal MICs, read-out: MIC
[4] = Enterococcus faecalis, isolate 27 E. faecalis Basal MICs, read-out: MIC
[5] = Staphylococcus aureus, isolate 22 S. aureus Basal MICs, read-out: MIC
[6] = Staphylococcus aureus, isolate 23 S. aureus Basal MICs, Penicillinase+, read-out: MIC
[7] = Staphylococcus aureus, isolate 24 S. aureus Basal MICs, Penicillinase+, read-out: MIC
[8] = isolate 9 K. pneumoniae Basal MICs, read-out: MIC
[9] = isolate 16 P. aeruginosa Basal MICs, read-out: MIC
[10] = isolate 19 P. aeruginosa PER, read-out: MIC

For `C[C@H]1COc2c(N3CCN(C)CC3)c(F)cc3c(=O)c(C(=O)O)cn1c23` [Levofloxacin], the MIC (E. cloacae; [1]) was 0.03 µg/mL, the MIC (E. cloacae; isolate 2 E. cloacae Derepressed AmpC, read-out: MIC) was 0.5 µg/mL and the MIC (E. cloacae; isolate 3 E. cloacae Derepressed AmpC, read-out: MIC) was 0.06 µg/mL. For the same compound, the MIC (E. coli; isolate 5 E. coli CTX-M-15, read-out: MIC) was 16 µg/mL, the MIC (E. coli; isolate 6 E. coli TEM-4, read-out: MIC) was 0.015 µg/mL and the MIC (E. coli; isolate 7 E. coli SHV-12, read-out: MIC) was 0.015 µg/mL. The MIC (E. coli; isolate 8 E. coli SHV-2, read-out: MIC) was 16 µg/mL, the MIC (E. faecalis; [2]) was 0.5 µg/mL and the MIC (E. faecalis; [3]) was 1 µg/mL. For the same compound, the MIC (E. faecalis; [4]) was 1 µg/mL, the MIC (S. aureus; [5]) was 0.25 µg/mL and the MIC (S. aureus; [6]) was 0.12 µg/mL. The MIC (S. aureus; [7]) was 0.12 µg/mL, the MIC (K. pneumoniae; [8]) was 0.03 µg/mL and the MIC (K. pneumoniae; isolate 10 K. pneumoniae TEM-4, read-out: MIC) was 0.03 µg/mL. It also gave an MIC (K. pneumoniae; isolate 11 K. pneumoniae CTX-M-15, read-out: MIC) of 16 µg/mL, an MIC (K. pneumoniae; isolate 12 K. pneumoniae SHV-12, read-out: MIC) of 0.03 µg/mL and an MIC (K. pneumoniae; isolate 13 K. pneumoniae KPC-3, read-out: MIC) of 0.06 µg/mL. For the same compound, the MIC (K. pneumoniae; isolate 14 K. pneumoniae KPC-3, read-out: MIC) was 16 µg/mL, the MIC (K. pneumoniae; isolate 15 K. pneumoniae KPC-2, read-out: MIC) was 0.06 µg/mL and the MIC (P. aeruginosa; [9]) was 1 µg/mL. It also gave an MIC (P. aeruginosa; isolate 17 P. aeruginosa Derepressed AmpC, read-out: MIC) of 8 µg/mL, an MIC (P. aeruginosa; isolate 18 P. aeruginosa Derepressed AmpC, read-out: MIC) of 0.12 µg/mL and an MIC (P. aeruginosa; [10]) of 16 µg/mL. It also gave an MIC (P. aeruginosa; isolate 20 P. aeruginosa KPC-2, read-out: MIC) of 16 µg/mL and an MIC (P. aeruginosa; isolate 21 P. aeruginosa KPC-2, read-out: MIC) of 32 µg/mL.
In the case of `CC(=O)NC[C@H]1CN(c2ccc(N3CCOCC3)c(F)c2)C(=O)O1` [Linezolid], the MIC (E. faecalis; [2]) is reported as 1 µg/mL, the MIC (E. faecalis; [3]) is reported as 2 µg/mL and the MIC (E. faecalis; [4]) is reported as 2 µg/mL. It also gave an MIC (S. aureus; [5]) of 2 µg/mL, an MIC (S. aureus; [6]) of 2 µg/mL and an MIC (S. aureus; [7]) of 2 µg/mL.
Work on `CN(C)c1cc(NC(=O)CNC(C)(C)C)c(O)c2c1C[C@H]1C[C@H]3[C@H](N(C)C)C(O)=C(C(N)=O)C(=O)[C@@]3(O)C(O)=C1C2=O` [Tigecycline] yielded an MIC (E. cloacae; [1]) of 0.5 µg/mL, an MIC (E. cloacae; isolate 2 E. cloacae Derepressed AmpC) of 1 µg/mL and an MIC (E. cloacae; isolate 3 E. cloacae Derepressed AmpC) of 0.5 µg/mL. The MIC (E. coli; isolate 4 E. coli Basal MICs, read-out: MIC) was 0.12 µg/mL, the MIC (E. coli; isolate 5 E. coli CTX-M-15) was 0.25 µg/mL and the MIC (E. coli; isolate 6 E. coli TEM-4) was 0.5 µg/mL. For the same compound, the MIC (E. coli; isolate 7 E. coli SHV-12) was 0.5 µg/mL, the MIC (E. coli; isolate 8 E. coli SHV-2) was 0.25 µg/mL and the MIC (E. faecalis; Enterococcus faecalis) was 0.06 µg/mL. It also gave an MIC (E. faecalis; isolate 26 E. faecalis Basal MICs) of 0.06 µg/mL, an MIC (E. faecalis; isolate 27 E. faecalis Basal MICs) of 0.06 µg/mL and an MIC (S. aureus; Staphylococcus aureus) of 0.12 µg/mL. It also gave an MIC (S. aureus; isolate 23 S. aureus Basal MICs, Penicillinase+) of 0.12 µg/mL, an MIC (S. aureus; isolate 24 S. aureus Basal MICs, Penicillinase+) of 0.12 µg/mL and an MIC (K. pneumoniae; [8]) of 0.25 µg/mL. The MIC (K. pneumoniae; isolate 10 K. pneumoniae TEM-4) was 0.25 µg/mL, the MIC (K. pneumoniae; isolate 11 K. pneumoniae CTX-M-15) was 1 µg/mL and the MIC (K. pneumoniae; isolate 12 K. pneumoniae SHV-12) was 0.5 µg/mL. For the same compound, the MIC (K. pneumoniae; isolate 13 K. pneumoniae KPC-3) was 1 µg/mL, the MIC (K. pneumoniae; isolate 14 K. pneumoniae KPC-3) was 0.25 µg/mL and the MIC (K. pneumoniae; isolate 15 K. pneumoniae KPC-2) was 0.5 µg/mL. It also gave an MIC (P. aeruginosa; [9]) of 16 µg/mL, an MIC (P. aeruginosa; isolate 17 P. aeruginosa Derepressed AmpC) of 32 µg/mL and an MIC (P. aeruginosa; isolate 18 P. aeruginosa Derepressed AmpC) of 32 µg/mL. For the same compound, the MIC (P. aeruginosa; [10]) was 32 µg/mL, the MIC (P. aeruginosa; isolate 20 P. aeruginosa KPC-2) was 16 µg/mL and the MIC (P. aeruginosa; isolate 21 P. aeruginosa KPC-2) was 2 µg/mL.
